From publication PMC8042727, “Apoptosis-like cell death upon kinetoplastid induction by compounds isolated from the brown algae Dictyota spiralis” (Parasites & Vectors, 2021)

How the values were obtained:
[1] = tested on: Leishmania amazonensis promastigotes; test: DNA condensation assay (Hoechst 33342 / PI); format: cell-based; settings: L. amazonensis promastigotes, IC90, 24 h
Procedure: Hoechst dye is a blue-fluorescent dye that stains condensed chromatin of apoptotic cells. To detect DNA condensation, the chromatin condensation/dead cell apoptosis kit was used (Invitrogen, Thermo Fisher Scientific, Waltham, MA, USA). Cells were incubated in the presence of the compounds to be tested at IC90. The IC90 values were determined using nonlinear regression of the AlamarBlue® curve. After 24 h of incubation, cells were harvested and resuspended in medium, following which 1 μl of Hoechst 33342 stock solution was added to parasites and incubated for 20 min. Results were analyzed by cell imaging using the Evos FL cell imaging system (Thermo Fisher Scientific). The experiments were repeated using a double-stain apoptosis detection kit (Hoechst 33342/PI; Thermo Fisher Scientific). […] A positive control was also tested: miltefosine (L. amazonensis) and benznidazole (T. cruzi).
DNA condensation is an important cellular event, providing evidence of apoptotic cell death. Hoechst dye is a blue-fluorescent dye that stains condensed chromatin. […] Also, using propidium iodine (PI), it is possible to distinguish dead cells, which stain red when PI penetrates the nucleus. The results of staining were evaluated using cell imaging. Different microscopy images are regrouped in Fig. 2 (for L. amazonensis) and Fig. 3 (for T. cruzi). […] A clear reduction in cell number is also evident.

Leishmania amazonensis = test: ATP level (CellTiter-Glo); format: cell-based; settings: L. amazonensis, IC90, 24 h, relative to negative control
Procedure: The CellTiter-Glo® luminescent cell viability assay (Promega, WI, USA) was used to quantify the adenosine triphosphate (ATP) concentration. Cells of the kinetoplastid strains (for both L. amazonensis [2 × 10^6 cells/ml] and T. cruzi [5 × 10^5cells/ml]) were incubated for 24 h with the compounds to be tested, at IC90 and 26 °C. After incubation, the cells were centrifuged and resuspended in 100 μl. To this volume, we added 100 μl of the reactive in white 96-well plates. After incubation, the luminescence signal was measured using the Enspire multimode plate reader. The decrease in ATP level was expressed as a percentage relative to the negative control. Miltefosine and benznidazole were tested as the positive control for L. amazonensis and T. cruzi, respectively.

`C=C1CC[C@@H]([C@@](C)(O)CCC=C(C)C)[C@@H](O)[C@@H]2C(C)=CC[C@@H]12` [Compound 2, dictyol E] was tested, and the “chromatin condensation / cell death stage (Hoechst/PI staining)” value [1] was “late apoptotic stage” and the “loss of ATP concentration” value (Leishmania amazonensis) was 26.6%.

With `C=C(C)[C@H]1CC[C@]2(C)C[C@@H]3O[C@@]3(C)CC/C=C(\C)CC[C@@H]12` [Compound 3, 3,4-epoxy-7,18-dolabelladiene] the “chromatin condensation / cell death stage (Hoechst/PI staining)” value [1] was “late apoptotic stage”.
